For assay [1], the target named is T1, Serotonin 3 (5-HT3) receptor (Rattus norvegicus, UniProt P35563+Q9JJ16).
T1 sequence (P35563 whole entry): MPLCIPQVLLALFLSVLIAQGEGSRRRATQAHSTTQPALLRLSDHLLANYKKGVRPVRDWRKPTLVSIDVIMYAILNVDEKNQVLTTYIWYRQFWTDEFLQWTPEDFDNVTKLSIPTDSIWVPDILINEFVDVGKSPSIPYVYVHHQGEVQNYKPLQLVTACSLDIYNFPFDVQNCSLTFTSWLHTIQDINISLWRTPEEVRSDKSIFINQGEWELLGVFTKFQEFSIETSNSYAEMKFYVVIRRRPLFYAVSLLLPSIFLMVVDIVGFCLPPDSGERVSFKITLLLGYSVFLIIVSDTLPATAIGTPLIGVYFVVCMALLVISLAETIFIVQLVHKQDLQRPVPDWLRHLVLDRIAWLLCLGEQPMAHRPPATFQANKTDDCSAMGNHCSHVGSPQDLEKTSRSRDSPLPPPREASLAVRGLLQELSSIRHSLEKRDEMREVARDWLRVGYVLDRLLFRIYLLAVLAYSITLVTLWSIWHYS
T1 sequence (Q9JJ16 whole entry): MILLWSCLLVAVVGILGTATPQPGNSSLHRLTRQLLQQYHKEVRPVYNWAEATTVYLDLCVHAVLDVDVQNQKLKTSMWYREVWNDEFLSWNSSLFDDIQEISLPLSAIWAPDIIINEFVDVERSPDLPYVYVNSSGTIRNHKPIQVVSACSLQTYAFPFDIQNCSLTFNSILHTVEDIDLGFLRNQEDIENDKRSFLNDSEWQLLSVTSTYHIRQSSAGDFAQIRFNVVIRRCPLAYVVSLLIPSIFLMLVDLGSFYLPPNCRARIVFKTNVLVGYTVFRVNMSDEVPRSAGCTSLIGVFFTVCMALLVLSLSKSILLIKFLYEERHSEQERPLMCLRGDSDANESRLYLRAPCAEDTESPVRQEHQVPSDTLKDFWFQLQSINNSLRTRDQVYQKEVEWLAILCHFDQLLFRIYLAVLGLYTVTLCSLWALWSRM
Briefly: Inhibition of [3H]GR-65630 binding to rat cortical membrane serotonin 3 receptor.

The target of assay [2] is T2, Serotonin 3 (5-HT3) receptor (Rattus norvegicus) (UniProt P35563+Q9JJ16). As to the kind of experiment: Antagonism of 5-HT-induced Von Bezold-Jarisch reflex in rat after intravenous administration of 30 ug/kg of HT (5-hydroxytryptamine 3 receptor antagonism). The format is functional, organism-based.
The target in assay [3] is T1, Serotonin 3 (5-HT3) receptor. Briefly: Inhibition of 5-HT (1 ug/mL) induced depolarization in rat vagus nerve (5-hydroxytryptamine 3 receptor antagonism). It counts as functional, tissue-based.
Assay [4] addresses T3, 5-hydroxytryptamine receptor 1A (Homo sapiens, UniProt P08908).
T3 sequence (P08908 whole entry): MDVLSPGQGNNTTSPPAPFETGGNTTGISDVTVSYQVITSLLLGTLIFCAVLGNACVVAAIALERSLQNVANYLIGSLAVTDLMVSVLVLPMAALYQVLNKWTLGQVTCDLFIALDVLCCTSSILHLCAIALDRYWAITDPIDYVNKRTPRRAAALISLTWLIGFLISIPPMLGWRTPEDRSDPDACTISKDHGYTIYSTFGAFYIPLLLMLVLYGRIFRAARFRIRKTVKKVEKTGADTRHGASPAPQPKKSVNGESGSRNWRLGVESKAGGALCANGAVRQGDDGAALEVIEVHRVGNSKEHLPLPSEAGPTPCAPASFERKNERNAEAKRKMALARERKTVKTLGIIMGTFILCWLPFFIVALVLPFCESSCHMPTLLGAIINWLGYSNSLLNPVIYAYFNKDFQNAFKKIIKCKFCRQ
As to the kind of experiment: Tested for binding affinity for 5-hydroxytryptamine 1A receptor.

The target in assay [5] is Serotonin 2 (5-HT2) receptor (Homo sapiens, UniProt P41595+P28223+P28335). As to the kind of experiment: Tested for binding affinity for 5-hydroxytryptamine 2 receptor. The format is protein assay.
Assay [6] concerns the target T4, D(2) dopamine receptor (Homo sapiens, UniProt P14416). As to the kind of experiment: Tested for binding affinity for Dopamine D2 receptor.
Assay [7] addresses T2, Serotonin 3 (5-HT3) receptor (Rattus norvegicus). As to the kind of experiment: Ability to antagonise the 5-HT- induced Von Bezold-Jarisch reflex in the rat after intravenous administration of 30 ug/kg of HT (5-hydroxytryptamine 3 receptor). The format is functional, organism-based.
Assay [8] addresses T4, D(2) dopamine receptor. As to the kind of experiment: Tested for binding affinity for Dopamine D2 receptors.
The target of assay [9] is T1, Serotonin 3 (5-HT3) receptor. Briefly: Tested for inhibition of binding of [3H]GR-65630 to rat cortical membranes, expressed as IC50. The format is cell membranes, Membrane.

Structures are written as SMILES. Some results are limits rather than exact numbers.

T4 sequence (P14416 whole entry): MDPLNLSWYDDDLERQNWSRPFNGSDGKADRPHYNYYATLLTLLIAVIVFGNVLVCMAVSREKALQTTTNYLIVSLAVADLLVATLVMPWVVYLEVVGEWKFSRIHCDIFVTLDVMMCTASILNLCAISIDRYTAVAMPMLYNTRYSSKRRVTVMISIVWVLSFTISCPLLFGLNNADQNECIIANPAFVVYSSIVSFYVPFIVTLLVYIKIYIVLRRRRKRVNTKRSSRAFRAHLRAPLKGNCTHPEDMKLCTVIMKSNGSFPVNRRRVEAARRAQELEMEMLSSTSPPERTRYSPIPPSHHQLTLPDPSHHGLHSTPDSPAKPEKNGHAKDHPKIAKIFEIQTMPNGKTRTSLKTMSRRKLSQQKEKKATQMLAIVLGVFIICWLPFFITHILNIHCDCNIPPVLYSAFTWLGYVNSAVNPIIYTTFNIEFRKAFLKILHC

One may read the IC50 as the concentration needed to halve the response being measured. High values mean a need for much substance, low ones inhibition by little substance. The term ED50 denotes the dose that gives a 50% effect, or the effect in half of the subjects. Read a high ED50 as a need for a large dose. For `Cc1nn2ccccc2c1C(=O)NC1CC2CCCC(C1)N2C` (stereo not given), the IC50 is 64 nM in [1] and 100 nM in assay [3]. Further, the ED50 in [2] was found to be 6 µg/kg.

`CN1C2CCC1CC(NC(=O)c1cnn3ccccc13)C2` (stereo not given): the IC50 in [4] is above 10000 nM; in assay [5] it was above 10000 nM; in assay [1], 34 nM; in assay [3] it was 105 nM; on D(2) dopamine receptor [6], above 10000 nM. The same molecule had an ED50 in [2] of 0.74 µg/kg.

Consider `O=C(N[C@H]1CN2CCC1C2)c1cnn2ccccc12` (stereo not given in full), for which the IC50 worked out at 52 nM in assay [1] and 124 nM in assay [3]. Also, in [2], the 50% effect level (ED50) was put at a dose of 2 µg/kg.

With `CN1C2CCCC1CC(NC(=O)c1cnn3ccccc13)C2` (stereo not given), the IC50 came to 170 nM in assay [1] and 300 nM in [3]. In addition, the ED50 in assay [2] turned out to be 5 µg/kg.

`Cc1nn2ccccc2c1C(=O)NC1CC2CCC(C1)N2C` (stereo not given): the IC50 is 26 nM in assay [1] and 42 nM in assay [3]. The same molecule yielded an ED50 in assay [7] of 1.2 µg/kg.

As to `CN1C2CCC1CC(NC(=O)c1cnn3ncccc13)C2` (stereo not given), in assay [1], the IC50 was 429 nM. In [2], the ED50 came out at 30 µg/kg.

In assay [1], `Cc1nn2ncccc2c1C(=O)NC1CC2CCCC(C1)N2C` (stereo not given) had an IC50 above 300 nM. Further, in assay [7], the ED50 is above 50 µg/kg.

For `O=C(NC1CN2CCC1CC2)c1cnn2ccccc12` (stereo not given), the half-inhibitory concentration (IC50) in assay [1] is 75 nM; in [3], 83 nM. This molecule registered an ED50 in assay [2] of 1 µg/kg.

`Cc1nn2ncccc2c1C(=O)NC1CC2CCC(C1)N2C` (stereo not given) had an IC50 in assay [1] of 122 nM. The molecule further returned an ED50 in assay [7] of 50 µg/kg.

`CN1[C@@H]2CC[C@H]1C[C@@H](OC(=O)c1c[nH]c3ccccc13)C2` [TROPISETRON]: the IC50 was determined as 3.1 nM in [1] and 1.4 nM in assay [3]. In assay [2], this molecule showed an ED50 of 0.5 µg/kg.

For `O=C(N[C@@H]1CN2CC[C@@H]1C2)c1cnn2ccccc12`, the IC50 in assay [1] came out at 72 nM; in assay [3], 419 nM. Moreover, the ED50 in assay [2] was determined as 8 µg/kg.

For `CN1C2CCC1CC(OC(=O)c1cnn3ccccc13)C2` (stereo not given), the IC50 is above 10000 nM in [4], above 10000 nM in [5], 28 nM in [1] and above 10000 nM on D(2) dopamine receptor [8]. Moreover, the ED50 in [2] came out at 2 µg/kg.

In assay [9], `CN1C2CCCC1CC(NC(=O)c1cnn3ncccc13)C2` (stereo not given) registered an IC50 of 818 nM. This molecule registered an ED50 in assay [7] above 100 µg/kg.

These data come from ChEMBL document CHEMBL1127772, “Pyrazolo[1,5-a]pyridines and pyrazolo[1,5-b]pyridazines as 5ht3-antagonists” (Bioorg Med Chem Lett, 1994).
